Measured values from ChEMBL document CHEMBL1201862, “PubChem BioAssay data set” (2004).
Calls of active or inactive are those of the source.

Tests used:
[1] = target: Beta-2 adrenergic receptor (Homo sapiens, UniProt P07550); assay: beta2AR agonists driving receptor internalization, dose response, cell-based, FAP fluorogen, flow cytometry, cherry pick 1 (AID 588763); format: functional
[2] = target: T1, Endoribonuclease toxin MazF (Escherichia coli K-12, UniProt P0AE70); assay: MazF toxin RNase activators, dose response, biochemical, fluorescence, single-stranded RNA substrate, uHTS hits (AID 588481); format: functional
T1 sequence (P0AE70 whole entry): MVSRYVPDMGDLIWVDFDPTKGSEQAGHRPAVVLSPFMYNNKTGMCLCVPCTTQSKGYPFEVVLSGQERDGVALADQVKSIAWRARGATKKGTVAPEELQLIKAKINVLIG

[3] = target: T2, Zinc finger protein mex-5 (Caenorhabditis elegans, UniProt Q9XUB2); assay: MEX-5/TCR-2 RNA interaction inhibitors, dose response, biochemical, C. elegans, fluorescence polarization (AID 1960)
T2 sequence (Q9XUB2 whole entry): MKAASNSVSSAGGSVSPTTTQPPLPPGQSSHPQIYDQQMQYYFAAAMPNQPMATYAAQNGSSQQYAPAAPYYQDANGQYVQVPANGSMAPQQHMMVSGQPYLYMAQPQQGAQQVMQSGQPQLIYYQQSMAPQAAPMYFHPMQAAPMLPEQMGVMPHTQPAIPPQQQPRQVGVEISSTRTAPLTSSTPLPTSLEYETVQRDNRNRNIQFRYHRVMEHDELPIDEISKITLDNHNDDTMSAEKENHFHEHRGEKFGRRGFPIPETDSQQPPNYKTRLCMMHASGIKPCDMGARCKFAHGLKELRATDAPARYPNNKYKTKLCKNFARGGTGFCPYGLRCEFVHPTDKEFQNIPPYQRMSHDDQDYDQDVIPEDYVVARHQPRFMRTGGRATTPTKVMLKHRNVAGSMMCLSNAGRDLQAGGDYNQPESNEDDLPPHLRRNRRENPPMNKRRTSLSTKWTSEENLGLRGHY

[4] = target: T3, RNA-binding protein pos-1 (Caenorhabditis elegans, UniProt G5EF15); assay: inhibitors of POS-1/mex-3 RNA binding, dose response, biochemical, fluorescence polarization (AID 1964);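 note: purified POS-1 fused to maltose binding protein made in E. coli; potency of compounds blocking POS-1 binding to fluorescent RNA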
T3 sequence (G5EF15 whole entry): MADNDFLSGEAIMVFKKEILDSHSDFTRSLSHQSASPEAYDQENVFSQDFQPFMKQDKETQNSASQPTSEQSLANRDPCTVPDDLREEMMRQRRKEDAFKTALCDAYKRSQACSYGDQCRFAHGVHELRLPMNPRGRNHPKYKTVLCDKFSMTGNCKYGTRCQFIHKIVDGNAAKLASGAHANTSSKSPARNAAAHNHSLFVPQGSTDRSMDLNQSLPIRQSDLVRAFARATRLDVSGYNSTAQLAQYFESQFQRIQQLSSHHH

[5] = target: T1, Endoribonuclease toxin MazF; assay: fluorescent RNA oligo signal without MazF, dose response, counter-screen for MazEF activator project, biochemical, fluorescence, single-stranded RNase substrate (AID 588502); format: functional
HeLa = assay: HeLa cell cytotoxicity, dose response, cytotoxicity control, 24 h, cherry-picked samples (AID 504726); format: functional, cell-based; details: Homo sapiens;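 note: potency for cytotoxicity as loss of luminescence signal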
Paired box protein Pax-8 = Paired box protein Pax-8 (Homo sapiens, UniProt Q06710); assay: inhibitors of PAX8-driven TPO luciferase reporter, dose response, RMG-I cells, cherry-pick (AID 687027); format: functional, cell-based;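 note: luciferase reporter driven by Pax8 target thyroperoxidase promoter measured by SteadyGlo luminescence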
[6] = inhibitors of HIV Env-driven cell fusion, dose response, cherry-pick (AID 652057); format: functional, cell-based
[7] = off-target signal loss in HeLa-CEM21 co-culture – HeLa F-luc CTL cells, cherry-picked, counter-screen for HIV-1 Env fusion inhibitor project, dose response (AID 652040); format: functional, cell-based;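 note: potency for signal decrease marking cytotoxic or nonspecific inhibition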
[8] = inhibitors of clade B AD8 Env fusion, dose response, cell-based, cherry-pick (AID 652062); format: functional;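 note: luciferase signal from cell-cell fusion driven by HIV-1 clade B AD8 Env; potency is for inhibitors of fusion seen as a drop in luminescence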
[9] = CEM21 lymphoblast cell cytotoxicity, dose response, cytotoxicity control for viral fusion inhibitor project, CellTiter-Glo luminescence, cherry-picked (AID 652042); format: functional, cell-based;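 note: potency for signal decrease meaning cytotoxicity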
[10] = cytotoxicity in HEK-293T NF-kB-Luc cells, dose response, cytotoxicity control for B/T-cell NF-kB inhibitor project, cell-based, uHTS hits (AID 489019); format: functional;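 note: IC50 reflects cytotoxicity as loss of cell viability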
[11] = ZM109 Env clade C HIV-1 fusion inhibitors, dose response, HeLa effector, CEM target cells, luciferase, cherry-pick (AID 652058); format: functional, cell-based
[12] = Luminescence Cell-Based Dose Retest to Confirm Inhibitors of Cancer Stem Cells. [Related pubchem assays (depositor defined):AID2717, AID2721]; format: functional; details: Homo sapiens
Jurkat = assay: antigen receptor-induced NF-kB inhibitors, dose response, Jurkat, luciferase reporter, luminescence, B- and T-cell (AID 489004); format: functional, cell-based; details: Homo sapiens;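 note: NF-kB luciferase reporter Jurkat cells stimulated with PMA plus ionomycin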
[13] = target: T4, Microphthalmia-associated transcription factor (Homo sapiens, UniProt O75030); assay: TRPM1 promoter luciferase signal decrease, dose response, MITF inhibitor project, cell-based, SK-MEL-5, cherry-picked, set 3 (AID 493073); format: functional
T4 sequence (O75030 whole entry): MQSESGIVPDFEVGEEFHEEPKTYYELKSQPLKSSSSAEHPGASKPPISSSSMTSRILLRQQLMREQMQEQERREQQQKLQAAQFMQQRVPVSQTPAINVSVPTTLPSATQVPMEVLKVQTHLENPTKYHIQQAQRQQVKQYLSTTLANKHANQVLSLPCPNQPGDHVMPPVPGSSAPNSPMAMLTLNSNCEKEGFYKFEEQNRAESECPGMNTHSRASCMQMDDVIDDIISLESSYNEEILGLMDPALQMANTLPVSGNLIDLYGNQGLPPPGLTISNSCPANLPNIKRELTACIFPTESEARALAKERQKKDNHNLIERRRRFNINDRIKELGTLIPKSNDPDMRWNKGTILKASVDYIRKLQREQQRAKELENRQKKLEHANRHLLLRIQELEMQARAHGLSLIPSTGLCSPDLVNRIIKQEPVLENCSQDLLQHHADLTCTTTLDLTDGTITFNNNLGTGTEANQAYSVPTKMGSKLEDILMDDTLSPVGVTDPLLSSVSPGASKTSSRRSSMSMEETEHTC

[14] = target: T5, Ubiquitin-conjugating enzyme E2 N (Homo sapiens, UniProt P61088); format: functional;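 note: Dose-response confirmation in a TR-FRET assay detecting UBC13-driven polyubiquitin chain formation, inhibition measured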
T5 sequence (P61088 whole entry): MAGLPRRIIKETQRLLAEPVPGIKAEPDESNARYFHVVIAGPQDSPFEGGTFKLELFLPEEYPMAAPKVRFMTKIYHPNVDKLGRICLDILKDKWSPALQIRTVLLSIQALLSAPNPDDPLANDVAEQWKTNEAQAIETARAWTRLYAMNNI

[15] = target: T6, DNA repair protein RAD52 homolog (Homo sapiens, UniProt P43351); format: functional, biochemical
T6 sequence (P43351 whole entry): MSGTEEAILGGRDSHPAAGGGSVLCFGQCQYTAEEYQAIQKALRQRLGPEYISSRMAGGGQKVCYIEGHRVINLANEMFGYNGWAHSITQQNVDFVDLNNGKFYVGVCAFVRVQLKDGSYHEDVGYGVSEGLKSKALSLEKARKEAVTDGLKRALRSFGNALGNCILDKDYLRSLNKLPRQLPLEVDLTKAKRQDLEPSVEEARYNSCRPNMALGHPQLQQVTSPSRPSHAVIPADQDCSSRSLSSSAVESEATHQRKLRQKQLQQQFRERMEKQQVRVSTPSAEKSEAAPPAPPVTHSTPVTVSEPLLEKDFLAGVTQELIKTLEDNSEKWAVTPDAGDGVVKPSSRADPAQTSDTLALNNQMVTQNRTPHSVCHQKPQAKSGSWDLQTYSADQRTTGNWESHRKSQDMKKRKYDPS

A-375 = assay: A375 melanoma cell viability reduction, dose response, counter-screen for MITF modulator project, cherry-pick samples, set 2 (AID 540335); format: functional, cell-based; details: Homo sapiens
HEK293 = assay: cells; format: functional, cell-based; details: Homo sapiens
[16] = target: T7, Nuclear receptor subfamily 0 group B member 1 (Homo sapiens, UniProt P51843); assay: Luminescence-based cell-based high throughput dose response assay for inhibitors of the orphan nuclear receptor subfamily 0, group B, member 1 (DAX1; NR0B1). [Related pubchem assays (depositor defined):AID504766, AID504790]; format: functional
T7 sequence (P51843 whole entry): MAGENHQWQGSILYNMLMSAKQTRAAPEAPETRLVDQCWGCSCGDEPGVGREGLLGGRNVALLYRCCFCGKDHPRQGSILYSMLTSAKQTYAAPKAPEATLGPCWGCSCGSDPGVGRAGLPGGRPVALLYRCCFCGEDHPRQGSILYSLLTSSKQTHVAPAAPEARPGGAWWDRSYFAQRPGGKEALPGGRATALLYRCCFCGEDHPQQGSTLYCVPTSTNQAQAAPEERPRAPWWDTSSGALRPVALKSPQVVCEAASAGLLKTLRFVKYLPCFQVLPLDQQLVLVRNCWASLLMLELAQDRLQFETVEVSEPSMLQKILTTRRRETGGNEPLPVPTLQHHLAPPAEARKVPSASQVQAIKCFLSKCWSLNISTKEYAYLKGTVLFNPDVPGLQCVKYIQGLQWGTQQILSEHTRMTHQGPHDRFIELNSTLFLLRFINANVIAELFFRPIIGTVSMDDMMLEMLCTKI

H4 = assay: Luminescence Cell-Based Dose Response HTS to Identify Activators of 5'UTR Stem-Loop Driven Prion Protein mRNA Translation in H4 Neuroglioblastoma Cells. [Related pubchem assays: 1829 (Project Summary), 1814 (Primary HTS)]; format: functional; details: Homo sapiens
[17] = Luminescence Cell-Based Dose Response HTS to Identify Activators of Luciferase Translation or Activity in H4 […] Cells. [Related pubchem assays: 1829 (Project Summary), 1814 (Primary HTS)]; format: functional
cells [18] = format: functional, cell-based
cells [19] = format: functional, cell-based; remark: listed apart in the source
[20] = Luminescence Cell-Based Dose Confirmation HTS to Identify Activators of 5'UTR Stem-Loop Driven Alpha-Synuclein mRNA Translation in H4 Neuroglioblastoma Cells. [Related pubchem assays: 1829 (Project Summary), 1814 (Primary HTS)]; format: functional
[21] = target: T8, Corticotropin-releasing factor receptor 2/Corticotropin-releasing factor-binding protein (Homo sapiens, UniProt P24387+Q13324); assay: activators of CRF receptor 2 with binding protein – uHTS hits, confirmation (AID 602473); format: functional; details: read-out: EC50_Mean
T8 sequence (Q13324 whole entry): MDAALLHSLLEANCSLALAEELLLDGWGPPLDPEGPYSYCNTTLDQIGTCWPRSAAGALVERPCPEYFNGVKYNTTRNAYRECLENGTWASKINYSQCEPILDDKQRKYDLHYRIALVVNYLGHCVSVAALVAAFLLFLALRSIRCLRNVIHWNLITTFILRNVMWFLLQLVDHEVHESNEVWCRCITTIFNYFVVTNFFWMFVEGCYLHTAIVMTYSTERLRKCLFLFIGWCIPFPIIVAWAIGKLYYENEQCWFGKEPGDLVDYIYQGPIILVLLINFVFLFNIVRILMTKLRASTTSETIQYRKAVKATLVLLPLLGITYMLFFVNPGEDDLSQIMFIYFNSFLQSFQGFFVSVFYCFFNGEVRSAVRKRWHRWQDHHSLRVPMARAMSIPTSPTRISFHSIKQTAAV
T8 sequence (P24387 whole entry): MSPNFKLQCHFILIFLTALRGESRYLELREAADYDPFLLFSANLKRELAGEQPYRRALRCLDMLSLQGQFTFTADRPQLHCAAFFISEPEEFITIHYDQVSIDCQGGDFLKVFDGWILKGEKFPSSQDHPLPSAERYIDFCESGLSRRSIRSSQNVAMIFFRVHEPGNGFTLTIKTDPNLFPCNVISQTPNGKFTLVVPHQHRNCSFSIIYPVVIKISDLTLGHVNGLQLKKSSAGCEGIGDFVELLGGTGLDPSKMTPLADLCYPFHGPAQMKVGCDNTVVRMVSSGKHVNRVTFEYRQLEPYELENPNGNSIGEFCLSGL

Sequence of Beta-2 adrenergic receptor (P07550 whole entry): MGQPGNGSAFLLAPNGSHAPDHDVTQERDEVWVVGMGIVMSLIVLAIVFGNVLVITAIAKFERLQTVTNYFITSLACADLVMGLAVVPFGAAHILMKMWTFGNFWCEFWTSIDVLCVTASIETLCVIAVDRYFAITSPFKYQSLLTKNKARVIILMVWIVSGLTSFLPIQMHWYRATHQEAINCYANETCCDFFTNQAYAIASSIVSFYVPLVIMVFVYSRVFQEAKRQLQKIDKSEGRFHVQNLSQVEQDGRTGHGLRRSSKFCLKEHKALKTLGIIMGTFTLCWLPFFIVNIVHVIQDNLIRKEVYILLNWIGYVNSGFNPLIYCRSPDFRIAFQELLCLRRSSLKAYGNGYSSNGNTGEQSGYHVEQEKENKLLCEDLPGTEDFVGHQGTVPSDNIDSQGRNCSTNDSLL
Sequence of Paired box protein Pax-8 (Q06710 whole entry, the tested form may be a part): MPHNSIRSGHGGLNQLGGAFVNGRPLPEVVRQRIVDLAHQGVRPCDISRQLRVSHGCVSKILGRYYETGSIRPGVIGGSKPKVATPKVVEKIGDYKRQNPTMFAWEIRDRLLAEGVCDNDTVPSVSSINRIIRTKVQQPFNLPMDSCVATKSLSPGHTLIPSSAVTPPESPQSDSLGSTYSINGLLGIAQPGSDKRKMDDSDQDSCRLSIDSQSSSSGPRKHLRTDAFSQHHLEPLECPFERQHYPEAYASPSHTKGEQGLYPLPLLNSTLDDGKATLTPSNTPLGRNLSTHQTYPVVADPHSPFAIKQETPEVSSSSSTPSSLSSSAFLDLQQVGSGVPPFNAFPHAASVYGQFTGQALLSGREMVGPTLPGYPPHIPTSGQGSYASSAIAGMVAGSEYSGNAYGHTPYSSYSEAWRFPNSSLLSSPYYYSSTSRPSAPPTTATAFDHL

With `O=C1C2CCCCN2C(=O)N1CCCCN1CCN(c2cccc(C(F)(F)F)c2)CC1` (stereo not drawn) the EC50 [1] was 2.52 µM (active).

With `Cc1ccc(N=Nc2c(O)[nH]c3ccc(F)cc23)cc1` the EC50 [2] was > 99 µM (inactive), the EC50 [3] was > 300 µM (inconclusive) and the EC50 [4] was > 300 µM (inconclusive). For the same compound, the EC50 [5] was 29.9 µM (inactive) and the AC50 (HeLa) was 251 µM (active).

For `C[C@@H]1O[C@@H](O[C@@H]2C=C3CC[C@@H]4C(CC[C@]5(C)[C@@H](c6ccc(=O)oc6)CC[C@]45O)[C@@]3(C)CC2)[C@H](O)[C@H](O)[C@H]1O` (stereo partly drawn), the AC50 (Paired box protein Pax-8) was < 0.26 µM (active), the AC50 [6] was 0.799 µM (active) and the AC50 [7] was < 0.26 µM (active). For the same compound, the AC50 [8] was 0.54 µM (active), the AC50 [9] was 0.613 µM (active) and the IC50 [10] was > 80 µM (inactive). The AC50 [11] was 0.319 µM (active), the AC50 [12] was < 0.16 µM (active) and the IC50 (Jurkat) was 0.33 µM (active).

For `Cc1c(CCOC(=O)c2ccc(Cl)cc2Cl)sc[n+]1CC(=O)c1ccc(Br)cc1`, the AC50 [13] was 19.8 µM (active), the IC50 [14] was > 20 µM (inactive) and the AC50 [15] was 13 µM (active). For the same compound, the AC50 (A-375) was 23.5 µM (active).

With `O=C(Nc1ccc2oc(-c3ccccc3)nc2c1)c1cc(-n2cnnc2)ccc1Cl` the EC50 [2] was > 99 µM (inactive) and the EC50 [5] was > 99 µM (inactive).

In the case of `CN(C)S(=O)(=O)c1cc(NC2CC(=O)N(c3ccc(F)cc3)C2=O)ccc1Cl` (stereo not drawn), the IC50 (HEK293) was > 67.5 µM (inactive) and the IC50 [16] was > 67.5 µM (inactive).

For `COc1ccc(C(=O)NC2=Nc3ccccc3N=C(C)C2c2ccccc2)cc1` (stereo not drawn), the EC50 (H4) was 18.9 µM (active), the EC50 [17] was 40.7 µM (active) and the EC50 (cells [18]) was 78.6 µM (active). For the same compound, the EC50 (cells [19]) was 34.7 µM (active), the IC50 (HEK293) was 3.47 µM (active) and the EC50 [20] was 9.66 µM (active). For the same compound, the IC50 [16] was > 67.5 µM (inactive).

For `CSc1nc(-c2ccc(N(C)C)cc2)c(C#N)c(=O)n1C`, the EC50 [21] was 7.08 µM (active), the EC50 [2] was > 99 µM (inactive) and the EC50 [5] was > 99 µM (inactive).
